Patent publication US4668725A, “Stabilizing compounds for organic polymers, and stabilized polymer compounds which contain them” (Enichem Sintesi S.p.A., priority 1984, dated 1987)

Assays:
[1] = Phenoxy radical formation and stability by ESR after reaction of stabilising compound with benzoyl peroxide in toluene; settings: 2% by weight each of compound and benzoyl peroxide in toluene; 70° C. for 24 hours, then at rest to ambient temperature
Description: In the case of stabilising compounds of phenolic nature, phenolic radicals characterised by long life have to form within the polymer in order for the antioxidant activity of the stabilising compound to take effect, and therefore the formation and stability of radicals of this type, originating from the reaction between the stabilising compounds of the present invention and benzoyl peroxide in toluene, are taken as parameters for evaluating the stabilising action of the stabilising compounds concerned.
In particular, in this test, toluene solutions containing 4% by weight of the stabilising compound are prepared simultaneously with solutions containing the same weight percentage of benzoyl peroxide. A small quantity of the stabilising compound solution is then mixed with an equal quantity of the benzoyl peroxide solution.
After mixing, a solution containing 2% by weight of each component is obtained. 1 ml of the resultant solution is then transferred to an ESR (electronic spin resonance) sample tube where it is degassed and sealed under vacuum. The system obtained in this manner is heated to 70° C. for 24 hours. The radical stability is checked by ESR spectra both during the 24 hour heating period and during the subsequent time, in which the system is left at rest to cool to ambient temperature.

[2] = Accelerated oven ageing of polypropylene film: growth of carbonyl index (IR band at 1720 cm^-1); settings: air circulation oven at 140° C.; 0.1% of the weight of the polymer; 100 μm film; extrapolated to zero carbonyl index; absent stabiliser: 2
Experimental: (§1) Accelerated thermal ageing tests are also carried out on polypropylene stabilised by the stabilising compounds of the present invention, and in particular the following tests are carried out:
measurements of the growth of the carbonyl index on polypropylene film containing the stabilising compound and subjected to thermal treatment; and
In the first case, the carbonyl index is evaluated from the IR spectrum for the film, by measuring the band intensity at 1720 cm^-1, and is defined by the relationship: [formula] where Io is the initial band intensity, It is the intensity at time t and S is the film thickness in μm.
The polypropylene film containing the stabilising compound is prepared by dissolving the stabilising compound in benzene and mixing the resultant solution with powdered polypropylene containing no other additive.
The stabilising compound is added in a quantity of 0.1% of the weight of the polymer. The benzene is then removed by evaporation under reduced pressure, and the residual powder is pressed into a film of 100 μm thickness.
The pressing is carried out at a temperature of 160° C. under a pressure of 900 kg/cm^2 for a time of 5 minutes. The film is extracted from the press and is rapidly cooled under running water.
The film prepared in this manner is then subjected to accelerated ageing in an air circulation oven at 140° C.
(§2) The polypropylene used for the tests is the commercial product Moplen® FL 20F of the Montedison Company.
Time of oven treatment (at 140° C.) required for inducing the formation of the IR band at 1720 cm^-1 in polypropylene films without stabilising compound and with stabilising compound.

[3] = Melt flow index variation of stabilised polypropylene on repeated extrusion; parameters: unit not given here; settings: ASTM-D1238, 90° C., 2.16 kg/cm^2
Experimental: as §1
measurements of the variation in the melt flow index of the polypropylene containing the stabilising compound and subjected to repeated extrusion.
Finally, the melt flow index variation measurements are carried out on polypropylene powder mixed with the stabilising compound by stirring for 30 minutes in a planetary mixer. The repeated extrusions are carried out in an extruder of 19 mm diameter, of length 25 times its diameter, and provided with a 2 mm nozzle and a screw, the compression ratio being 1:4, the speed being 50 r.p.m. The temperature profile along the extruder is 175° C.; 230° C.; 270° C.; 270° C.
After each extrusion, the filament obtained is cut into granules to be subjected to a new extrusion passage.
At the end of each passage, some of the granules are used for measuring the melt flow index in accordance with ASTM-D1238, operating at 90° C. and at a pressure of 2.16 kg/cm^2.
The melt flow index values after 1, 3, 5 and 7 passages through the extruder are shown for polypropylene stabilised by certain stabilisers according to the present invention in Table 3.
as §2
Melt flow index of polypropylene containing the stabilising compound as a function of the number of successive passages through the extruder.

Row | Melt flow index of polypropylene containing the stabilising compound ([3]; 1 extrusion) | Melt flow index of polypropylene containing the stabilising compound ([3]; 3 extrusions) | Melt flow index of polypropylene containing the stabilising compound ([3]; 5 extrusions) | Melt flow index of polypropylene containing the stabilising compound ([3]; 7 extrusions) | SMILES | t 1/2: time required to reduce to one half the ESR signal intensity for the phenoxy radicals [1] [h] | t 1/4: time required to reduce to one quarter the ESR signal intensity for the phenoxy radicals [1] [h] | Induction time for the formation of the IR band at 1720 cm^-1 (carbonyl band) in polypropylene films [2] [h]
1 | 7.34 | 9.91 | 12.59 | 14.61 | CC(C)(C)c1cc(CCC(=O)OCCOc2ccc(OCCOC(=O)CCc3cc(C(C)(C)C)c(O)c(C(C)(C)C)c3)cc2)cc(C(C)(C)C)c1O [Example 3, 1,4-phenylene-bis-(oxyethylidene)-bis-[3-(4'-hydroxy-3',5'-di-tert-butylphenyl)propionate]] | 24 | 90 | 575
2 | 7.42 | 10.36 | 13.09 | 15.78 | CC(C)(C)c1cc(CCC(=O)Nc2ccc(OC(=O)CCc3cc(C(C)(C)C)c(O)c(C(C)(C)C)c3)cc2)cc(C(C)(C)C)c1O [Example 4, phenylene-1-[3-(4'-hydroxy-3',5'-di-tert-butylphenyl)propionate]-4-[3-(4'-hydroxy-3',5'-di-tert-butylphenyl)propionamide]] | 15 | 150 | –
3 | – | – | – | – | CC(C)(C)c1cc(CCC(=O)Oc2cccc(OC(=O)CCc3cc(C(C)(C)C)c(O)c(C(C)(C)C)c3)c2OC(=O)CCc2cc(C(C)(C)C)c(O)c(C(C)(C)C)c2)cc(C(C)(C)C)c1O [Example 1, benzene-1,2,3-tri[3-(4'-hydroxy-3',5'-di-tert-butylphenyl)propionate]] | 20 | 100 | 260
4 | – | – | – | – | CC(C)(C)c1cc(CCC(=O)Oc2cc(C(=O)O)cc(OC(=O)CCc3cc(C(C)(C)C)c(O)c(C(C)(C)C)c3)c2OC(=O)CCc2cc(C(C)(C)C)c(O)c(C(C)(C)C)c2)cc(C(C)(C)C)c1O [Example 2, benzene-3,4,5-tri[3-(4'-hydroxy-3',5'-di-tert-butylphenyl)propionate]-1-carboxylic acid] | – | – | 160
